Results as given in ChEMBL document CHEMBL4138123, “Design, synthesis and biological evaluation of novel pyrazolochalcones as potential modulators of PI3K/Akt/mTOR pathway and inducers of apoptosis in breast cancer cells” (Eur J Med Chem, 2017).

Assays:
Assay type in all cases: functional
U-251 = experiment: Cytotoxicity against human U251 cells assessed as cell growth at 100 uM after 48 hrs by sulforhodamine B assay relative to control; conditions: U-251, 48 h, read-out: Activity
SF-539 = experiment: Cytotoxicity against human SF539 cells assessed as cell growth at 10 uM after 48 hrs by sulforhodamine B assay relative to control; conditions: SF-539, 48 h, read-out: Activity
BT-549 = experiment: Cytotoxicity against human BT549 cells assessed as cell growth at 10 uM after 48 hrs by sulforhodamine B assay relative to control; conditions: BT-549, 48 h, read-out: Activity
RPMI-8226 = experiment: Cytotoxicity against human RPMI8226 cells assessed as cell growth at 100 uM after 48 hrs by sulforhodamine B assay relative to control; conditions: RPMI-8226, 48 h, read-out: Activity
MOLT-4 = experiment: Cytotoxicity against human MOLT4 cells assessed as cell growth at 100 uM after 48 hrs by sulforhodamine B assay relative to control; conditions: MOLT-4, 48 h, read-out: Activity
OVCAR-8 = experiment: Cytotoxicity against human OVCAR8 cells assessed as growth inhibition after 48 hrs by sulforhodamine B assay; conditions: OVCAR-8, 48 h
NCI/ADR-RES = experiment: Cytotoxicity against human NCI/ADR-RES cells assessed as cell growth at 1 uM after 48 hrs by sulforhodamine B assay relative to control; conditions: read-out: Activity
Malme-3M [1] = experiment: Cytotoxicity against human MALME-3M cells assessed as cell growth at 0.01 uM after 48 hrs by sulforhodamine B assay relative to control; conditions: read-out: Activity
NCI-H322M = experiment: Cytotoxicity against human NCI-H322M cells assessed as cell growth at 100 uM after 48 hrs by sulforhodamine B assay relative to control; conditions: read-out: Activity
TK-10 = experiment: Cytotoxicity against human TK10 cells assessed as growth inhibition after 48 hrs by sulforhodamine B assay; conditions: TK-10, 48 h
RXF 393 = experiment: Cytotoxicity against human RXF393 cells assessed as cell growth at 0.1 uM after 48 hrs by sulforhodamine B assay relative to control; conditions: RXF 393, 48 h, read-out: Activity
KM12 = experiment: Cytotoxicity against human KM12 cells assessed as cell growth at 1 uM after 48 hrs by sulforhodamine B assay relative to control; conditions: KM12, 48 h, read-out: Activity
NCI-H460 = experiment: Cytotoxicity against human NCI-H460 cells assessed as cell growth at 100 uM after 48 hrs by sulforhodamine B assay relative to control; conditions: NCI-H460, 48 h, read-out: Activity
SK-MEL-28 [2] = experiment: Cytotoxicity against human SK-MEL-28 cells assessed as cell growth at 100 uM after 48 hrs by sulforhodamine B assay relative to control; conditions: SK-MEL-28, 48 h, read-out: Activity
SK-MEL-28 [3] = experiment: Cytotoxicity against human SK-MEL-28 cells assessed as cell growth at 0.01 uM after 48 hrs by sulforhodamine B assay relative to control; conditions: SK-MEL-28, 48 h, read-out: Activity
ACHN [4] = experiment: Cytotoxicity against human ACHN cells assessed as cell growth at 100 uM after 48 hrs by sulforhodamine B assay relative to control; conditions: read-out: Activity
A549 = experiment: Cytotoxicity against human A549/ATCC cells assessed as cell growth at 10 uM after 48 hrs by sulforhodamine B assay relative to control; conditions: A549, 48 h, read-out: Activity
COLO 205 = experiment: Cytotoxicity against human COLO205 cells assessed as cell growth at 0.1 uM after 48 hrs by sulforhodamine B assay relative to control; conditions: COLO 205, 48 h, read-out: Activity
SN12C = experiment: Cytotoxicity against human SN12C cells assessed as cell growth at 100 uM after 48 hrs by sulforhodamine B assay relative to control; conditions: read-out: Activity
HCT-116 = experiment: Cytotoxicity against human HCT116 cells assessed as cell growth at 10 uM after 48 hrs by sulforhodamine B assay relative to control; conditions: HCT-116, 48 h, read-out: Activity
ACHN [5] = experiment: Cytotoxicity against human ACHN cells assessed as cell growth at 0.01 uM after 48 hrs by sulforhodamine B assay relative to control; conditions: read-out: Activity
SK-MEL-28 [6] = experiment: Cytotoxicity against human SK-MEL-28 cells assessed as growth inhibition after 48 hrs by sulforhodamine B assay; conditions: SK-MEL-28, 48 h
MDA-MB-468 [7] = experiment: Cytotoxicity against human MDA-MB-468 cells assessed as cell growth at 0.01 uM after 48 hrs by sulforhodamine B assay relative to control; conditions: MDA-MB-468, 48 h, read-out: Activity
ACHN [8] = experiment: Cytotoxicity against human ACHN cells assessed as growth inhibition after 48 hrs by sulforhodamine B assay
OVCAR-3 = experiment: Cytotoxicity against human OVCAR3 cells assessed as cell growth at 0.01 uM after 48 hrs by sulforhodamine B assay relative to control; conditions: OVCAR-3, 48 h, read-out: Activity
SR [9] = experiment: Cytotoxicity against human SR cells assessed as cell growth at 100 uM after 48 hrs by sulforhodamine B assay relative to control; conditions: read-out: Activity
SK-MEL-28 [10] = experiment: Cytotoxicity against human SK-MEL-28 cells assessed as cell growth at 0.1 uM after 48 hrs by sulforhodamine B assay relative to control; conditions: SK-MEL-28, 48 h, read-out: Activity
OVCAR-5 = experiment: Cytotoxicity against human OVCAR5 cells assessed as cell growth at 100 uM after 48 hrs by sulforhodamine B assay relative to control; conditions: OVCAR-5, 48 h, read-out: Activity
MDA-MB-468 [11] = experiment: Cytotoxicity against human MDA-MB-468 cells assessed as growth inhibition after 48 hrs by sulforhodamine B assay; conditions: MDA-MB-468, 48 h
HL-60(TB) = experiment: Cytotoxicity against human HL-60(TB) cells assessed as cell growth at 100 uM after 48 hrs by sulforhodamine B assay relative to control; conditions: HL-60, 48 h, read-out: Activity
SR [12] = experiment: Cytotoxicity against human SR cells assessed as cell growth at 1 uM after 48 hrs by sulforhodamine B assay relative to control; conditions: read-out: Activity
MDA-MB-468 [13] = experiment: Cytotoxicity against human MDA-MB-468 cells assessed as cell growth at 1 uM after 48 hrs by sulforhodamine B assay relative to control; conditions: MDA-MB-468, 48 h, read-out: Activity
SW-620 = experiment: Cytotoxicity against human SW620 cells assessed as cell growth at 100 uM after 48 hrs by sulforhodamine B assay relative to control; conditions: SW-620, 48 h, read-out: Activity
OVCAR-4 = experiment: Cytotoxicity against human OVCAR4 cells assessed as cell growth at 0.01 uM after 48 hrs by sulforhodamine B assay relative to control; conditions: OVCAR-4, 48 h, read-out: Activity
NCI-H226 = experiment: Cytotoxicity against human NCI-H226 cells assessed as cell growth at 100 uM after 48 hrs by sulforhodamine B assay relative to control; conditions: NCI-H226, 48 h, read-out: Activity
Malme-3M [14] = experiment: Cytotoxicity against human MALME-3M cells assessed as cell growth at 100 uM after 48 hrs by sulforhodamine B assay relative to control; conditions: read-out: Activity

COc1ccc(-c2cc(/C=C/C(=O)c3ccc(N)cc3)[nH]n2)cc1
growth at 100 µM (U-251): -100%
growth at 10 µM (SF-539): -61%
growth at 10 µM (BT-549): -37%
growth at 100 µM (RPMI-8226): -67%
growth at 100 µM (MOLT-4): -47%
GI50 (OVCAR-8): 2.44 µM
LC50 (OVCAR-8): > 100 µM
TGI (OVCAR-8): 15.4 µM
growth at 1 µM (NCI/ADR-RES): 85%
growth at 0.01 µM (Malme-3M [1]): 93%
growth at 100 µM (NCI-H322M): -98%
GI50 (TK-10): 2.81 µM
LC50 (TK-10): 39.8 µM
TGI (TK-10): 13 µM
growth at 0.1 µM (RXF 393): 88%
growth at 1 µM (KM12): 77%
growth at 100 µM (NCI-H460): -70%
growth at 100 µM (SK-MEL-28 [2]): -81%
growth at 0.01 µM (SK-MEL-28 [3]): 98%
growth at 100 µM (ACHN [4]): -73%
growth at 10 µM (A549): 1%
growth at 0.1 µM (COLO 205): 96%
growth at 100 µM (SN12C): -78%
growth at 10 µM (HCT-116): -53%
growth at 0.01 µM (ACHN [5]): 103%
GI50 (SK-MEL-28 [6]): 1.87 µM
LC50 (SK-MEL-28 [6]): 8.57 µM
TGI (SK-MEL-28 [6]): 4.01 µM
growth at 0.01 µM (MDA-MB-468 [7]): 103%
GI50 (ACHN [8]): 2.01 µM
LC50 (ACHN [8]): 49.2 µM
TGI (ACHN [8]): 10.6 µM
growth at 0.01 µM (OVCAR-3): 104%
growth at 100 µM (SR [9]): -61%
growth at 0.1 µM (SK-MEL-28 [10]): 91%
growth at 100 µM (OVCAR-5): -86%
GI50 (MDA-MB-468 [11]): 0.43 µM
LC50 (MDA-MB-468 [11]): 7.45 µM
TGI (MDA-MB-468 [11]): 2.09 µM
growth at 100 µM (HL-60(TB)): -47%
growth at 1 µM (SR [12]): 45%
growth at 1 µM (MDA-MB-468 [13]): 29%
growth at 100 µM (SW-620): -58%
growth at 0.01 µM (OVCAR-4): 88%
growth at 100 µM (NCI-H226): -51%
growth at 100 µM (Malme-3M [14]): -82%

COc1cc2c(cc1OC)C(=O)/C(=C/c1cc(-c3ccc4c(c3)OCO4)n[nH]1)C2
growth at 100 µM (U-251): -94%
growth at 10 µM (SF-539): -96%
growth at 10 µM (BT-549): -94%
growth at 100 µM (RPMI-8226): -54%
growth at 100 µM (MOLT-4): -17%
GI50 (OVCAR-8): 1.57 µM
LC50 (OVCAR-8): 5.93 µM
TGI (OVCAR-8): 3.05 µM
growth at 1 µM (NCI/ADR-RES): 86%
growth at 0.01 µM (Malme-3M [1]): 93%
growth at 100 µM (NCI-H322M): -91%
GI50 (TK-10): 1.89 µM
LC50 (TK-10): 5.96 µM
TGI (TK-10): 3.36 µM
growth at 0.1 µM (RXF 393): 82%
growth at 1 µM (KM12): 67%
growth at 100 µM (NCI-H460): -67%
growth at 100 µM (SK-MEL-28 [2]): -92%
growth at 0.01 µM (SK-MEL-28 [3]): 104%
growth at 100 µM (ACHN [4]): -89%
growth at 10 µM (A549): -30%
growth at 0.1 µM (COLO 205): 105%
growth at 100 µM (SN12C): -96%
growth at 10 µM (HCT-116): -75%
growth at 0.01 µM (ACHN [5]): 104%
GI50 (SK-MEL-28 [6]): 1.89 µM
LC50 (SK-MEL-28 [6]): 6.09 µM
TGI (SK-MEL-28 [6]): 3.4 µM
growth at 0.01 µM (MDA-MB-468 [7]): 93%
GI50 (ACHN [8]): 1.73 µM
LC50 (ACHN [8]): 6.04 µM
TGI (ACHN [8]): 3.23 µM
growth at 0.01 µM (OVCAR-3): 101%
growth at 100 µM (SR [9]): -22%
growth at 0.1 µM (SK-MEL-28 [10]): 101%
growth at 100 µM (OVCAR-5): -86%
GI50 (MDA-MB-468 [11]): 1.07 µM
LC50 (MDA-MB-468 [11]): 5.44 µM
TGI (MDA-MB-468 [11]): 2.41 µM
growth at 100 µM (HL-60(TB)): -36%
growth at 1 µM (SR [12]): 38%
growth at 1 µM (MDA-MB-468 [13]): 54%
growth at 100 µM (SW-620): -71%
growth at 0.01 µM (OVCAR-4): 101%
growth at 100 µM (NCI-H226): -46%
growth at 100 µM (Malme-3M [14]): -81%
